Source: PubChem BioAssay (NCI)
“And” between values parts separate entries of the source, which are not always exact repeats. Identical values can stand only once.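 Method: 48-hour compound exposure of cells in 96-well plates, five concentrations, linear interpolation of endpoints. GI50: concentration for 50% inhibition of growth. The concentration for full growth arrest is given as TGI.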

Columns and labels:
Test in all cases: growth of human tumour cells (NCI), 48 h
SK-MEL-28 melanoma = tested on: SK-MEL-28 melanoma
RXF 393 renal = tested on: RXF 393 renal
MOLT-4 leukemia = tested on: MOLT-4 leukemia
UACC-62 melanoma = tested on: UACC-62 melanoma
SNB-75 CNS = tested on: SNB-75 CNS
HS 578T breast = tested on: HS 578T breast
PC-3 prostate = tested on: PC-3 prostate
U251 CNS = tested on: U251 CNS
RPMI-8226 leukemia = tested on: RPMI-8226 leukemia
OVCAR-5 ovarian = tested on: OVCAR-5 ovarian

Compound	GI50 (SK-MEL-28 melanoma)	TGI (SK-MEL-28 melanoma) [µM]	GI50 (RXF 393 renal)	TGI (RXF 393 renal)	GI50 (MOLT-4 leukemia)	TGI (MOLT-4 leukemia) [µM]	GI50 (UACC-62 melanoma)	TGI (UACC-62 melanoma)	GI50 (SNB-75 CNS)	TGI (SNB-75 CNS)	GI50 (HS 578T breast)	TGI (HS 578T breast)	GI50 (PC-3 prostate)	TGI (PC-3 prostate)	GI50 (U251 CNS)	TGI (U251 CNS)	GI50 (RPMI-8226 leukemia)	TGI (RPMI-8226 leukemia)	GI50 (OVCAR-5 ovarian)	TGI (OVCAR-5 ovarian)
CCCCCCCC(=O)SCC/C=C/[C@@H]1CC(=O)NCc2nc(cs2)C2=N[C@@](C)(CS2)C(=O)N[C@@H](C(C)C)C(=O)N1	0.0185 µM	25.8	< 0.0112 µM	0.0695 µM	< 0.0112 µM	> 100	< 0.01 µM	0.165 µM	0.0312 µM	> 69 µM	0.0183 µM	38 µM	< 0.0125 µM	> 100 µM	0.0318 µM	0.364 µM	0.0283 µM	> 100 µM	0.0118 µM	> 100 µM
COc1ccc(/C(C#N)=C/c2cc(OC)c(OC)c(OC)c2)cc1	27.4 µM	> 100	20.6 µM	> 100 µM	20.2 µM	66	14.1 µM	> 100 µM	11.6 µM	87.7 µM	38.7 µM	> 100 µM	15.6 µM	67.9 µM	26.2 µM	> 100 µM	16.6 µM	56.1 µM	35.3 µM	> 100 µM
Cn1nc(C(F)(F)F)c(-c2cc(C(F)(F)F)cc(C(F)(F)F)c2)c1-c1ccc(OCc2ccc(Cl)cc2)cc1O	2.32 µM	10.7	2.32 µM	6.76 µM	2.61 µM	11	1.45 µM	4.05 µM	2.17 µM	10.5 µM	2.19 µM	6.78 µM	1.88 µM	11.5 µM	2.38 µM	12.1 µM	2.26 µM	7.22 µM	3.29 µM	15 µM
C[C@H]1CNC(=O)c2cnn3ccc(nc23)N[C@H](C)c2cc(F)ccc2O1	18.5 µM	> 100	0.282 µM	1.26 µM	1.96 µM	42.2	2.32 µM	39 µM	0.146 µM	1.05 µM	0.325 µM	2.76 µM	1.53 µM	> 67 µM	3.36 µM	> 100 µM	10.3 µM	41.6 µM	0.385 µM	9.56 µM
NC(N)=NC(N)=NCCCc1ccco1	23.1 µM	91.3	77.5 µM	237 µM	28.3 µM	176	37.8 µM	111 µM	83.3 µM	245 µM	96 µM	383 µM	> 500 µM	> 500 µM	150 µM	> 500 µM	23.7 µM	101 µM	148 µM	> 500 µM
COC(=O)Nc1nc2ccc(C(=O)c3ccccc3)cc2[nH]1	0.651 µM and 0.464 µM	> 100	0.368 µM	2.19 µM	0.536 µM and 0.393 µM	> 45.8	0.476 µM and 0.463 µM	> 100 µM	0.256 µM and 0.0866 µM	> 100 µM and 17 µM	0.518 µM and 0.2 µM	> 100 µM	0.405 µM and 0.25 µM	> 100 µM and 19.1 µM	0.5 µM and 0.398 µM	> 100 µM	0.903 µM and 0.297 µM	> 100 µM and 15 µM	5.38 µM and 2.5 µM	> 100 µM
O=C(c1ccco1)c1c(C(F)(F)F)n([O-])c2cc(C(F)(F)F)ccc2[n+]1=O	1.67 µM	3.27	0.43 µM	0.929 µM	0.0773 µM	0.162	1.44 µM	2.89 µM	1.55 µM	2.96 µM	1.36 µM		0.163 µM	0.559 µM	0.46 µM	0.951 µM	0.455 µM	1.19 µM	1.86 µM	3.39 µM
CC(C)=CC(=O)N[C@H]1CC[C@]2(C)C3CC[C@]4(C)C(C(C)N(C)C)=CCC4C3CCC2[C@H]1O (some centres not stated)	1.82 µM	3.4	2.7 µM	9.74 µM	2.81 µM	11.4	1.95 µM	3.77 µM	8.76 µM	21.8 µM	4.25 µM	18.8 µM	3.88 µM	18.1 µM	3.89 µM	15.9 µM	2.41 µM	9.3 µM	10.9 µM	25.2 µM
C[C@]12CC[C@H]3[C@@H](CC4SC(N)=NC45C/C(=N/NC(N)=O)CC[C@]35C)[C@@H]1CCC2=O (some centres not stated)	1.63 µM	3.1	1.61 µM	3.23 µM	2.64 µM	7.02	1.63 µM	3.13 µM	1.58 µM	3.5 µM	2.08 µM	5.15 µM	1.25 µM	2.75 µM	1.77 µM	3.22 µM	0.3 µM	1.37 µM	1.71 µM	3.19 µM
O=C1C(=O)c2ccccc2C(O)=C1CCCc1ccc(C2CCCCC2)cc1	8.54 µM	27.2	11.5 µM	26.8 µM	4.24 µM	> 100	0.816 µM	19.4 µM	5.17 µM	91 µM	8.59 µM	56.9 µM	0.722 µM	44.8 µM	6.42 µM	> 100 µM	1.8 µM	23.7 µM	17 µM	42.2 µM
COC(=O)C(=O)C(C(=O)C(=O)Nc1ccccc1OC)c1nc2ccc([N+](=O)[O-])cc2[nH]c1=O (configuration not stated)		> 100		> 100 µM		> 100		> 100 µM		> 100 µM		> 100 µM		> 100 µM		> 100 µM		> 100 µM		> 100 µM
COC(=O)c1c2c(c(C)[n+]([O-])c1C)C(=O)C=C(NCc1cccc(Cl)c1)C2=O	0.716 µM	2.09	1.2 µM	2.53 µM	0.505 µM	1.89	0.0741 µM	0.459 µM	1.64 µM	3.01 µM	1.77 µM	6.79 µM	0.257 µM	2.6 µM	0.367 µM	1.55 µM	0.86 µM	4.28 µM	1.18 µM	2.57 µM
O=C(Nc1ccc(F)cc1)Nc1ccc(Br)c(C(F)(F)F)c1	2.83 µM	11.1	2.66 µM	8.28 µM	1.95 µM	5.53	2.29 µM	10.1 µM	1.79 µM	5.38 µM	2.95 µM	9.31 µM	0.847 µM	9.24 µM	2.14 µM	7.47 µM	1.03 µM	4.96 µM	2.55 µM	10.8 µM
CC(C)c1cccc(O)c(=O)c1	0.138 µg/mL		0.116 µg/mL			> 46.9	4.17 µg/mL	28.6 µg/mL and > 41.3 µM		> 92.6 µM	1.98 µg/mL	38.6 µg/mL	2.6 µg/mL	> 75 µg/mL	1.23 µg/mL		0.826 µg/mL		75 µg/mL	> 75 µg/mL and > 100 µM
CCC1(OC(=O)CN)C(=O)OCc2c1cc1n(c2=O)Cc2cc3ccccc3nc2-1 (configuration not stated)	0.851 µM	38.7	0.148 µM	0.88 µM and 0.307 µM	0.00396 µM	0.0305	0.00787 µM	0.0895 µM and 0.0596 µM	0.0183 µM	0.246 µM and 0.484 µM		> 90.7 µM	0.172 µM	> 100 µM	0.0118 µM	0.333 µM and 0.636 µM	0.031 µM	0.209 µM	0.0728 µM	0.6 µM and 0.533 µM
C=C1SC(=Nc2ccccc2Cl)N(C(=O)c2sc3ccccc3c2Cl)C12CCCCC2	> 100 µM	> 100	15.2 µM	88.7 µM	4.72 µM	> 100	22.8 µM	> 100 µM	14 µM	> 100 µM	4.84 µM	> 100 µM	4.51 µM	> 100 µM	4.42 µM	> 100 µM	3.81 µM	98.2 µM	35.9 µM	> 100 µM
C=C1C(=O)O[C@H]2[C@H]1CC/C(Cn1cc(-c3ccc(F)cc3)nn1)=C\CC[C@@]1(C)O[C@@H]21	0.822 µM	2.21	0.874 µM	2.13 µM	0.387 µM	2	1.26 µM	2.65 µM	1.25 µM	2.5 µM	3.68 µM	22.6 µM	2 µM	4.07 µM	2.02 µM	4.43 µM	1.41 µM	4.92 µM	1.48 µM	3.13 µM
O=CN1N=C(c2cccc(Nc3ccnc4cc(Cl)ccc34)c2)CC1c1ccccc1 (configuration not stated)	0.65 µM	24.6	0.336 µM	3.58 µM	0.383 µM	2.77	0.444 µM	21.8 µM	0.191 µM	1.83 µM	0.248 µM	3.4 µM	0.306 µM	42.7 µM	0.358 µM	1.55 µM	0.471 µM	4.51 µM	1.5 µM	> 100 µM
COc1ccc(/C=C2\SC(=Nc3ccccc3)NC2=O)cc1	8.06 µM	44.8	4.68 µM	26.8 µM	4.77 µM	> 100	4.79 µM	> 100 µM	2.42 µM	10.9 µM	4.32 µM	40.7 µM	7.69 µM	> 100 µM	3.98 µM	16.3 µM	5.38 µM	> 100 µM	12.5 µM	> 100 µM
